In patent US6566545B2, “Menthol derivatives and process for preparing the same” (Pacific Corporation, priority 2001, dated 2003):

Legend:
[1] = tested on: back of New Zealand White Rabbit; experiment: Retinol-induced skin irritation on rabbit back, Draize Primary Irritation Index; assay type: in vivo; conditions: for Irritation Index: Draize Primary Irritation Index, 0.01% agent applied with 1000 I.U. retinol as irritation source, twice a day, rabbit back skin; for Relative Ratio: irritation relative to blank applied only with retinol, 0.01% agent
Experimental: The hairs on the back of New Zealand White Rabbit were removed and fed with sufficient water and nutrition. At the areas of 1.5 cm×1.5 cm on the back of the rabbit, menthol, menthol 3-aminopropylphosphate (MPA) and 1000 I.U. of retinol as irritation source were applied respectively. The number of applying positions for each rabbit was 8˜10, and the agents were applied twice a day with 6 hours of time interval. The applied positions were exposed to air. Erythema, rash or edema was measured everyday after 48 hours has passed from the first apply during 1 week to observe the irritation. According to the “Primary Irritation Index” of Draize, the degree of irritation was determined. Relative irritation was calculated with the ratio to the blank sample that applied only with retinol, and the results are shown in Table 1 and FIG. 1.

[2] = Solubility in aqueous and aqueous mixed solution
Text: To observe the solubility of the menthol 3-aminopropylphosphate in the aqueous phase, solubility were measure in aqueous and aqueous mixed solution.
Menthol was used as relativity group.

[3] = tested on: phosphatase; experiment: Hydrolysis by phosphatase in phosphoric buffer pH 7.4, HPLC; assay type: in vitro ADME; conditions: 3-aminopropylphosphoric acid measured by HPLC (FIG. 2)
Experimental: To clarify the activity of menthol 3-aminopropylphosphate obtained in Example 2, the hydrolysis of the menthol 3-aminopropylphosphate by a phosphatase in the skin was observed. That is, the preparation of menthol and 3-aminopropylphosphoric acid by the hydrolysis was observed.
3-aminopropylphosphate and phosphatase were added to phosphoric buffer solution with pH 7.4, then, hydrolysis was performed. The phosphatase used above was Alkaline Phosphate manufactured by SIGMA, Co., Ltd.
The amount of the 3-aminopropylphosphoric acid prepared by the hydrolysis was measured by means of HPLC, and the results are shown in FIG. 2.

Row | SMILES | Irritation Index [1] | Relative Ratio [1] | solubility ([2]; H2O) [%] | solubility ([2]; H2O:1,3-BG = 1:1) [%] | solubility ([2]; H2O:Ethanol = 1:1) [%] | solubility ([2]; H2O:Ethanol = 5:1) [%] | aqueous solubility compared with menthol ([2]; in words) | hydrolysis by phosphatase [3]
1 | CC1CCC(C(C)C)C(OP(=O)(O)OCCCN)C1 (stereo not drawn) [menthol 3-aminopropyl phosphate, Menthol 3-Aminopropylphosphate] | 6.07 | 0.63 | 0.3 | 5 | 6 | 1 | increased very much compared with menthol itself | hydrolyzed by the phosphatase of the skin and formed menthol and 3-aminopropylphosphoric
2 | CC1CCC(C(C)C)C(O)C1 (stereo not drawn) [menthol] | 9.34 | 0.97 |  |  |  |  |  | 
3 | C[C@]12CCC(=O)C=C1CC[C@@H]1[C@@H]2[C@@H](O)C[C@@]2(C)[C@H]1CC[C@]2(O)C(=O)CO [hydrocortisone] | 5.10 | 0.53 |  |  |  |  |  | 
